Results reported in patent US5591741A, “Fungicidal spiroheterocyclic derivatives” (American Cyanamid Company, priority 1993, dated 1997).

Tests used:
Botrytis cinerea = test: Direct protectant activity against broad bean grey mould (BCB); type: in vivo; details: direct protectant foliar spray, 600 ppm, 4 days
In short: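 Protectant foliar test: lesion coverage assessed 4 days after inoculation and rated relative to untreated or diluent-sprayed plants. Compound applied at 600 ppm to cv The Sutton leaves 24 h before 10^6 conidia/ml suspension; incubation at 22 °C in high humidity.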

Venturia inaequalis = test: Activity against apple scab in-vitro (VII); type: cell-based; details: 10 ppm, 10 days, 20° C., mycelial growth
In short: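 V. inaequalis propagules (5×10^4/ml, malt agar-grown) were exposed in half-strength PDB to 10 ppm final test compound delivered in acetone. Growth was scored after incubation for 10 days at 20° C, as a rating relative to untreated or diluent-sprayed controls.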

Rhizoctonia solani = test: Activity against Rhizoctonia in-vitro (RSI); type: cell-based; details: 10 ppm, 10 days, 20° C., mycelial growth
In short: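 Compound at a final 10 ppm (acetone vehicle) in half-strength PDB, inoculated with 5×10^4 fragments/ml of shaken-culture R. solani mycelium. After incubation at 20° C for 10 days, growth scored as a rating versus untreated or diluent-treated controls.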

Plasmopara viticola = test: Antisporulant activity against vine downy mildew (PVA); type: in vivo; details: vine leaves, antisporulant foliar spray, 600 ppm, 750 l/ha
In short: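 Cabernet Sauvignon vines (~8 cm) inoculated on lower leaf surfaces with 5×10^4 zoosporangia/ml, held 24 h at 21° C high humidity then 24 h glasshouse. Infected leaves sprayed underside with 600 ppm compound in 1:1 water/acetone, 0.04% Tween 20, 750 l/ha; 96 h glasshouse, 24 h humidity. Sporulating leaf area rated versus control.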

Leptosphaeria nodorum = test: Activity against wheat leafspot (LN); type: in vivo; details: direct therapeutic foliar spray, 600 ppm, 6-8 days
In short: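 Therapeutic foliar spray: compound at 600 ppm applied to single-leaf wheat (cv Norman) 24 h after inoculation with 1.5×10^6 conidia/ml. Disease control scored after 6-8 days at 22° C and 70% humidity as lesions per leaf versus untreated or diluent-sprayed controls.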

Phytophthora infestans = type: in vivo; details: tomato, direct protectant foliar spray
[1] = system: Erysiphe graminis f.sp. hordei; test: Activity against barley powdery mildew, direct therapeutic (EGT); type: in vivo; details: direct therapeutic foliar spray, 600 ppm, up to 7 days
In short: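 A curative spray at 600 ppm was applied to single-leaf Golden Promise barley inoculated with powdery mildew conidia the previous day. After up to 7 days at 18 °C and 40% humidity, disease control was rated from percent leaf area sporulating relative to untreated or diluent-sprayed controls.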

[2] = system: Erysiphe graminis f.sp. hordei; test: Direct protectant activity against barley powdery mildew (EGP); type: in vivo; details: direct protectant foliar spray, 8 days
In short: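 Rating reflects percentage of leaf area with sporulation compared with untreated or diluent-sprayed controls. Protectant spray was applied to single-leaf barley (cv Golden Promise) 24 h before conidia inoculation. Plants were kept at 18 °C and 40% RH throughout, with 8 days of disease development.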

Alternaria solani = test: Activity against tomato early blight (AS); type: in vivo; details: Table VI; tomato seedlings, contact prophylactic foliar spray, 4 days
In short: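 Plants were challenged with A. solani conidia (10^4 spores/ml) 24 h after a protective foliar spray of compound in 50:50 acetone/water plus 0.04% Tween 20. Held humid at 21° C for 4 days, then percent leaf area with lesions was scored as a rating relative to controls.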

[3] = system: Pseudocercosporella herpotrichoides; test: Activity against wheat eyespot in-vitro (PHI); type: cell-based; details: 10 ppm, 10 days, 20° C., mycelial growth
In short: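 Mycelial growth was scored after 10 days at 20 °C against untreated or diluent controls. The broth was half-strength potato dextrose, holding 10 ppm test compound (from acetone) and 5×10^4 fragments/ml of the eyespot fungus.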

Pyricularia oryzae = type: in vivo; details: rice seedlings, direct therapeutic foliar spray, 600 ppm, 4-5 days

Row | Structure (SMILES) | disease control rating BCB (Botrytis cinerea) | disease control rating VII (Venturia inaequalis) | disease control rating RSI (Rhizoctonia solani) | disease control rating PVA (Plasmopara viticola) | disease control rating LN (Leptosphaeria nodorum) | disease control rating PIP (Phytophthora infestans) | disease control rating EGT [1] | disease control rating EGP [2] | disease control rating AS (Alternaria solani) | disease control rating PHI [3] | disease control rating PO (Pyricularia oryzae)
1 | CC(C)(C)C1CCC2(CC1)CC(CNC1CCCCC1)CO2 (centres unmarked) [Compound 182, 8-t-Butyl-3-cyclohexylaminomethyl-1-oxaspiro(4,5)decane] | 1 (about 50-80% disease control) | 2 (greater than 80% disease control) | 2 (greater than 80% disease control) | 0 (less than 50% disease control) | 1 (about 50-80% disease control) | 0 (less than 50% disease control) | 2 (greater than 80% disease control) | 2 (greater than 80% disease control) | 0 (less than 50% disease control) | 1 (about 50-80% disease control) | 0 (less than 50% disease control)
2 | CC(C)NC1COC2(CCC(C(C)(C)C)CC2)C1 (centres unmarked) [Compound 63] | 0 (less than 50% disease control) | 0 (less than 50% disease control) | 0 (less than 50% disease control) | 0 (less than 50% disease control) | 0 (less than 50% disease control) | 0 (less than 50% disease control) | 2 (greater than 80% disease control) | 2 (greater than 80% disease control) | 0 (less than 50% disease control) | 0 (less than 50% disease control) | 0 (less than 50% disease control)
3 | CC1CN(C2COC3(CCC(c4ccccc4)CC3)C2)CC(C)O1 (centres unmarked) [Compound 58] | 0 (less than 50% disease control) | 1 (about 50-80% disease control) | 0 (less than 50% disease control) | 0 (less than 50% disease control) | 2 (greater than 80% disease control) | 0 (less than 50% disease control) | 2 (greater than 80% disease control) | 2 (greater than 80% disease control) | 0 (less than 50% disease control) | 0 (less than 50% disease control) | 0 (less than 50% disease control)
4 | CC(C)(C)C1CCC2(CC1)CC(Nc1ccccc1)CO2 (centres unmarked) [Compound 22] | 0 (less than 50% disease control) | 0 (less than 50% disease control) | 0 (less than 50% disease control) | 0 (less than 50% disease control) | 0 (less than 50% disease control) | 0 (less than 50% disease control) | 1 (about 50-80% disease control) | 1 (about 50-80% disease control) | 0 (less than 50% disease control) | 0 (less than 50% disease control) | 0 (less than 50% disease control)
5 | CC(C)(C)CNC1COC2(CCC(C(C)(C)C)CC2)C1 (centres unmarked) [Compound 134] | 0 (less than 50% disease control) | 0 (less than 50% disease control) | 0 (less than 50% disease control) | 0 (less than 50% disease control) | 0 (less than 50% disease control) | 0 (less than 50% disease control) | 2 (greater than 80% disease control) | 2 (greater than 80% disease control) | 0 (less than 50% disease control) | 0 (less than 50% disease control) | 0 (less than 50% disease control)
6 | CC(C)CN(CC(C)C)C1COC2(CCC(C(C)(C)C)CC2)C1 (centres unmarked) [Compound 143] | 0 (less than 50% disease control) | 0 (less than 50% disease control) | 0 (less than 50% disease control) | 0 (less than 50% disease control) | 0 (less than 50% disease control) | 0 (less than 50% disease control) | 2 (greater than 80% disease control) | 2 (greater than 80% disease control) | 0 (less than 50% disease control) | 0 (less than 50% disease control) | 0 (less than 50% disease control)
7 | CCCCCCNC1COC2(CCC(C(C)(C)C)CC2)C1 (centres unmarked) [Compound 41] | 0 (less than 50% disease control) | 0 (less than 50% disease control) | 0 (less than 50% disease control) | 0 (less than 50% disease control) | 1 (about 50-80% disease control) | 0 (less than 50% disease control) | 2 (greater than 80% disease control) | 2 (greater than 80% disease control) | 0 (less than 50% disease control) | 1 (about 50-80% disease control) | 0 (less than 50% disease control)
8 | CC(C)(C)C1CCC2(CC1)CC(N1CCc3ccccc3C1)CO2 (centres unmarked) [Compound 114] | 2 (greater than 80% disease control) | 1 (about 50-80% disease control) | 0 (less than 50% disease control) | 0 (less than 50% disease control) | 0 (less than 50% disease control) | 2 (greater than 80% disease control) | 2 (greater than 80% disease control) | 2 (greater than 80% disease control) | 1 (about 50-80% disease control) | 0 (less than 50% disease control) | 0 (less than 50% disease control)
9 | CCCCCCN(C)C1COC2(CCC(C(C)(C)C)CC2)C1 (centres unmarked) [Compound 14] | 0 (less than 50% disease control) | 2 (greater than 80% disease control) | 1 (about 50-80% disease control) | 0 (less than 50% disease control) | 1 (about 50-80% disease control) | 0 (less than 50% disease control) | 2 (greater than 80% disease control) | 2 (greater than 80% disease control) | 0 (less than 50% disease control) | 2 (greater than 80% disease control) | 0 (less than 50% disease control)
10 | CN(C1CCCCC1)C1COC2(CCC(C(C)(C)C)CC2)C1 (centres unmarked) [Compound 20] | 0 (less than 50% disease control) | 1 (about 50-80% disease control) | 0 (less than 50% disease control) | 0 (less than 50% disease control) | 0 (less than 50% disease control) | 0 (less than 50% disease control) | 2 (greater than 80% disease control) | 2 (greater than 80% disease control) | 0 (less than 50% disease control) | 0 (less than 50% disease control) | 0 (less than 50% disease control)
